The supplement of paper PMC12533247

How the values were obtained:
[1] = test system: HSV-1 K26-GFP infected 3D skin equivalent; test: % activity on HSV-1 GFP signal (0 = infected DMSO control, -100 = uninfected control); higher = higher signal (negative = inhibition / toxicity); details: time (h post infection): 48
Procedure: (§1)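 Triplicate dose-response (0.04 to 10 uM) of 11 top compounds in 3D bioprinted skin equivalents (submerged and ALI models) infected with GFP-HSV-1 K26 at MOI 0.1 and fixed at 48 hpi. GFP (virus) and tdTomato (fibroblast viability) signals are normalised to per-plate controls.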

[2] = test system: HSV-1 K26-GFP infected primary human skin cells; test: % change of HSV-1 GFP signal vs untreated infected cells; higher = less antiviral inhibition
Procedure: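 2D primary donor-derived keratinocytes (read at 20 hpi) and donor-matched dermal fibroblasts (read at 48 hpi) infected with GFP-HSV-1 K26 at MOI 1 and treated 1 h later with compound dilutions. IncuCyte GFP integrated intensity is normalised by subtracting mock-infected wells and dividing by untreated infected wells, shown as % change (-100 = full inhibition).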

[3] = test system: HSV-1 K26-GFP infected 3D skin equivalent; test: % change of tdTomato fibroblast signal relative to infected DMSO control; higher = higher signal (negative = inhibition / toxicity); details: time (h post infection): 48
Procedure: as §1

[4] = test system: HSV-1 K26-GFP infected primary human skin cells; test: % change of HSV-1 GFP signal vs untreated infected cells; higher = less antiviral inhibition; details: cell type: primary dermal fibroblasts, time (h post infection): 48
Procedure: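 2D primary donor-derived dermal fibroblasts infected with GFP-HSV-1 K26 at MOI 1, treated 1 h later with compound dilutions and read at 48 hpi on IncuCyte. GFP integrated intensity is normalised to mock-infected and untreated infected wells (% change; -100 = full inhibition).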

COc1ccc(-c2nc(N3CCOCC3)c3sc(CN(C)c4ncc(C(=O)NO)cn4)cc3n2)cn1 [Fimepinostat]
Details	% activity on HSV-1 GFP signal [%]	% change of HSV-1 GFP signal [%]	% change of tdTomato fibroblast signal [%]
[1], 0.041152 µM, model: ALI	-85.1	–	–
[1], 0.041152 µM, model: submerged	2.37	–	–
[1], 0.123457 µM, model: ALI	-97.4	–	–
[1], 0.123457 µM, model: submerged	6.63	–	–
[1], 0.37037 µM, model: ALI	-79.6	–	–
[1], 0.37037 µM, model: submerged	-1.58	–	–
[1], 1.111111 µM, model: ALI	-64.2	–	–
[1], 1.111111 µM, model: submerged	-31.5	–	–
[1], 3.33333 µM, model: ALI	-78.3	–	–
[1], 3.33333 µM, model: submerged	-75.6	–	–
[1], 10 µM, model: ALI	-88.6	–	–
[1], 10 µM, model: submerged	-87.4	–	–
[3], 0.041152 µM, model: ALI	–	–	-7.82
[3], 0.041152 µM, model: submerged	–	–	12.3
[3], 0.123457 µM, model: ALI	–	–	-14
[3], 0.123457 µM, model: submerged	–	–	9.59
[3], 0.37037 µM, model: ALI	–	–	-3.36
[3], 0.37037 µM, model: submerged	–	–	12.7
[3], 1.111111 µM, model: ALI	–	–	-5.66
[3], 1.111111 µM, model: submerged	–	–	8.55
[3], 3.33333 µM, model: ALI	–	–	-20.2
[3], 3.33333 µM, model: submerged	–	–	-1.39
[3], 10 µM, model: ALI	–	–	-11
[3], 10 µM, model: submerged	–	–	-3.36
[4], 0.003 µM, donor: 3	–	27.2	–
[4], 0.003 µM, donor: 4	–	-1.5	–
[4], 0.0091 µM, donor: 3	–	32.4	–
[4], 0.0091 µM, donor: 4	–	-0.607	–
[4], 0.0274 µM, donor: 3	–	30.4	–
[4], 0.0274 µM, donor: 4	–	-1.06	–
[4], 0.0823 µM, donor: 3	–	27.5	–
[4], 0.0823 µM, donor: 4	–	3.49	–
[4], 0.2469 µM, donor: 3	–	29.4	–
[4], 0.2469 µM, donor: 4	–	-2.47	–
[4], 0.7407 µM, donor: 3	–	21.4	–
[4], 0.7407 µM, donor: 4	–	-9.92	–
[4], 2.2222 µM, donor: 3	–	14.6	–
[4], 2.2222 µM, donor: 4	–	-5.85	–
[4], 6.6667 µM, donor: 3	–	11.3	–
[4], 6.6667 µM, donor: 4	–	-11.4	–
[4], 20 µM, donor: 3	–	8.87	–
[4], 20 µM, donor: 4	–	-9.02	–
[4], 60 µM, donor: 3	–	7.95	–
[4], 60 µM, donor: 4	–	-4.24	–

% change of HSV-1 GFP signal [%], [2]
Details	0.003 µM	0.0091 µM	0.0274 µM	0.0823 µM	0.2469 µM	0.7407 µM	2.2222 µM	6.6667 µM	20 µM	60 µM
cell type: primary dermal fibroblasts, donor: 5, time (h post infection): 48	-12.8	-13.7	-14.2	-12.3	-12	-18.4	-25.6	-32.6	-34.1	-28.4
cell type: primary keratinocytes, donor: 3, time (h post infection): 20	6.27	-3.11	2.91	1.02	-16.3	-33.2	-41.3	-43	-64.7	-48.6
cell type: primary keratinocytes, donor: 4, time (h post infection): 20	-14.2	-25.2	-17.4	-25	-33	-64.8	-69.2	-76.4	-89.2	-72.7
cell type: primary keratinocytes, donor: 5, time (h post infection): 20	-6.73	-26.4	-15.1	-24.8	-44.7	-48	-58.2	-64.6	-70.5	-57.8
